Values quoted from earlier work in patent publication US20220387439A1, “ANTI-INFLAMMATORY PHARMACEUTICAL COMPOSITION COMPRISING PROBIOTICS AND ANTIBIOTICS, AND METHOD USING SAME” (priority 2019, published 2022).

Tested on: patient with otitis media
Settings: Patient 1, otitis media for more than several years; antibiotics taken at other hospitals

N[C@@H](C(=O)N[C@@H]1C(=O)N2C(C(=O)O)=C(Cl)CS[C@H]12)c1ccccc1 [cefaclor]
treatment effect of antibiotics taken earlier: no treatment effect
